Tested on: double transgenic rats over-expressing both, the gene for human renin and the gene for human angiotensinogen
Experiment: Urinary albumin excretion (albuminuria) in double transgenic rat model of malignant hypertension with renal complications
Assay type: in vivo
Text: An animal model for spontaneously malignant hypertension with renal complications is represented by double transgenic rats over-expressing both, the gene for human renin and the gene for human angiotensinogen. This double transgenic rat strain is produced by crossbreeding two transgenic strains, one for human angiotensinogen with the endogenous promoter and one for human renin with the endogenous promoter. Neither single transgenic strain is hypertensive. […] The fact that human renin can be studied in the rat is a unique feature of this model and allows the extrapolation to clinical high renin hypertension. […] Each agent can be tested over a wide range of dosages to determine the optimal drug level for each agent in combination to elicit the maximal response. Each study group is best performed in which the effects of the combination treatment group are determined at the same time as the individual components are evaluated. Although drug effects may be observed upon short term treatment, it is preferable to observe responses in a chronic setting as shown below in which experiments were done over a three to seven week observation period. The long-term duration study is of sufficient duration to allow for the full development of compensatory responses to occur and therefore, the observed effect will most likely depict the actual responses of the test system representing sustained or persistent effects. The combination therapy can be compared to that of the respective monotherapies by determining the maximum change in 24 hour urinary protein content at a given day. All values are represented as the group mean±standard error of the mean (SEM). Statistical significance is obtained when p<0.05. The albuminuria values for each of the treatment groups can be compared statistically using a one-way ANOVA followed by the appropriate post-hoc analysis, for example by performing a Bonferoni test. Four week old double transgenic rats were treated daily by oral gavage with SPP100/aliskiren at a dose of 10 mg/kg, SPP301/avosentan at doses of 10 and 30 mg/kg and combinations of SPP100/aliskiren with SPP301/avosentan at the same doses. After three, five and seven weeks of drug treatment, 24 hour urine samples are collected using metabolic cages. The urinary albumin content is measured by ELISA using a commercial kit ([…] GmbH, Luckenwalde, Germany).

Row | SMILES | Albuminuria: mean ± SEM (SPP100 10 mg/kg daily oral gavage, Baseline, 24 h urine, ELISA) | Albuminuria: mean ± SEM (SPP100 10 mg/kg daily oral gavage, treatment week 3) | Albuminuria: mean ± SEM (SPP100 10 mg/kg daily oral gavage, treatment week 5) | Albuminuria: mean ± SEM (SPP100 10 mg/kg daily oral gavage, treatment week 7) | mean urinary albumin excretions (SPP100/aliskiren 10 mg/kg daily oral, after seven weeks of treatment) | Albuminuria: mean ± SEM (SPP301 10 mg/kg daily oral gavage, Baseline) | Albuminuria: mean ± SEM (SPP301 10 mg/kg daily oral gavage, treatment week 3) | Albuminuria: mean ± SEM (SPP301 10 mg/kg daily oral gavage, treatment week 5) | Albuminuria: mean ± SEM (SPP301 10 mg/kg daily oral gavage, treatment week 7) | Albuminuria: mean ± SEM (SPP301 30 mg/kg daily oral gavage, Baseline) | Albuminuria: mean ± SEM (SPP301 30 mg/kg daily oral gavage, treatment week 3) | Albuminuria: mean ± SEM (SPP301 30 mg/kg daily oral gavage, treatment week 5) | Albuminuria: mean ± SEM (SPP301 30 mg/kg daily oral gavage, treatment week 7) | urinary albumin contents (SPP301/avosentan at 10 or 30 mg/kg daily dosing)
1 | COCCCOc1cc(C[C@@H](C[C@H](N)[C@@H](O)C[C@H](C(=O)NCC(C)(C)C(N)=O)C(C)C)C(C)C)ccc1OC [SPP100, aliskiren] | 469 ± 64 ug/24 h | 3046 ± 734 ug/24 h | 12356 ± 3194 ug/24 h | 22268 ± 5067 ug/24 h | up to 22.3 mg | – | – | – | – | – | – | – | – | –
2 | COc1ccccc1Oc1c(NS(=O)(=O)c2ccc(C)cn2)nc(-c2ccncc2)nc1OC [SPP301, 5-methyl-pyridine-2-sulfonic acid [6-methoxy-5-(2-methoxy-phenoxy)-2-pyridin-4-yl-pyrimidin-4-yl]-amide] | – | – | – | – | – | 422 ± 128 ug/24 h | 14213 ± 4658 ug/24 h | 38936 ± 7988 ug/24 h | 38980 ± 9642 ug/24 h | 413 ± 151 ug/24 h | 11824 ± 2343 ug/24 h | 43160 ± 10250 ug/24 h | 37416 ± 16057 ug/24 h | ≤ 39 mg
